Laboratory results: patent publication US6500849B1, “1-alkyl-, 1-alkenyl-, and 1-alkynylaryl-2-amino 1,3-propanediols and related compounds” (Aventis Pharmaceuticals Inc., priority 1990, dated 2002)
≈ marks a conversion by molar mass, not a printed value. Read-outs that look alike come from different tables or passages of the source.

Key:
E. cloacae = test: Aerobic antibacterial assay (agar dilution, Mueller-Hinton agar); conditions: Enterobacter cloacae, 24 h, read-out: Antibacterial activity (MIC, mg/l)
Bact. ovatus = test: Anerobic antibacterial assay (agar dilution, Wilkins-Chalgren agar); assay type: cell-based; conditions: Bacteroides ovatus; Bact. ovatus 103; anaerobic; 48 hours at 37° C.; read-out: Antibacterial activity (MIC, mg/l)
Staph. aureus = test: Aerobic antibacterial assay (agar dilution, Mueller-Hinton agar); conditions: Staphylococcus aureus, 24 h
Spaeroph. freundii = test: Anerobic antibacterial assay (agar dilution, Wilkins-Chalgren agar); assay type: cell-based; conditions: 48 h, read-out: Antibacterial activity (MIC, mg/l)
Clost. perfringens = test: microbe, parasite or virus in culture; assay type: cell-based; conditions: Clostridium perfringens, 48 h, read-out: Antibacterial activity (MIC, mg/l)
Bact. thetaiotaom. = test: Anerobic antibacterial assay (agar dilution, Wilkins-Chalgren agar); assay type: cell-based; conditions: anaerobic, 48 hours at 37° C.
Bact. fragilis = test: as above; assay type: cell-based; conditions: Bacteroides fragilis, anaerobic, 48 hours at 37° C.
Fusobact. varium = test: as above; assay type: cell-based; conditions: 48 h, read-out: Antibacterial activity (MIC, mg/l)
Peptostr. anaerobius = test: as above; assay type: cell-based; conditions: 48 h, read-out: Antibacterial activity (MIC, mg/l)
Strept. pyogenes = test: Aerobic antibacterial assay (agar dilution, Mueller-Hinton agar); conditions: Streptococcus pyogenes, 24 h, read-out: Antibacterial activity (MIC, mg/l)
Strept. faecium = test: as above; conditions: Enterococcus faecium, 24 h, read-out: Antibacterial activity (MIC, mg/l)
Propionibact. acnes = test: Anerobic antibacterial assay (agar dilution, Wilkins-Chalgren agar); assay type: cell-based; conditions: 48 h, read-out: Antibacterial activity (MIC, mg/l)
Klebsiella spp. = test: Aerobic antibacterial assay (agar dilution, Mueller-Hinton agar); conditions: Klebsiella, 24 h, read-out: Antibacterial activity (MIC, mg/l)
Bact. vulgatus = test: Anerobic antibacterial assay (agar dilution, Wilkins-Chalgren agar); assay type: cell-based; conditions: Phocaeicola vulgatus, 48 h, read-out: Antibacterial activity (MIC, mg/l)
S. typhimurium = test: Aerobic antibacterial assay (agar dilution, Mueller-Hinton agar); conditions: Salmonella enterica, TYPHIMURIUM, 24 h, read-out: Antibacterial activity (MIC, mg/l)
Trichophyton Vaginalis = test: Antifungal assay (microtitration technique); assay type: cell-based; conditions: 120 h; Trichophyton Vaginalis strain 111/216; 5 days at 30° C.
Method: (§1) The microtiter plate is prepared as follows: The wells are each filled (2 rows/strain) with 50 μl neopeptone-dextrose broth (12-channel pipette). In addition, one row/strain is coated with 50 μl yeast-nitrogen base/well for yeasts and moulds. […] All wells are then inoculated with 150 μl standardized organism suspension (yeasts: 1×10^3 organisms/ml suspension; cutaneous fungi and moulds: 1.6×10^5 organisms/ml suspension); the total volume is 200 μl per well. There is also a growth control (inoculated, not medicated), a solvent control (inoculated, not medicated, containing solvent as in medicated rows) and a negative control (not inoculated, not medicated). Incubation for 5 days at 30° C. is followed by photometric evaluation. The obtained measurements are checked visually (macroscopically and microscopically) and corrected where necessary. Criteria for Evaluation of the Antimycotic Effect a. Photometric measurements (matrix method) b. Growth, macroscopic evaluation c. Growth, microscopic evaluation (inversion light microscope, magn. 64×).

Trichophyton Rubrum = test: Antifungal assay (microtitration technique); assay type: cell-based; conditions: 120 h; Trichophyton Rubrum strain 101/85; 5 days at 30° C.
Method: as §1

Microsporum Canis = test: Antifungal assay (microtitration technique); assay type: cell-based; conditions: 120 h; Microsporum Canis strain 150/353; 5 days at 30° C.
Method: as §1

[1] = test system: Trichophyton Mentagrophytes; test: Antifungal assay (microtitration technique); assay type: cell-based; conditions: 120 h; Trichophyton Mentagrophytes strain 100/25; 5 days at 30° C.
Method: as §1

Aspergillus Niger = test: Antifungal assay (microtitration technique); assay type: cell-based; conditions: 120 h; Aspergillus Niger strain 500/284; 5 days at 30° C.
Method: as §1

Candida Albicans = test: Antifungal assay (microtitration technique); assay type: cell-based; conditions: 120 h; Candida Albicans strain 200/175; 5 days at 30° C.
Method: as §1

Clost. tetani = test: Anerobic antibacterial assay (agar dilution, Wilkins-Chalgren agar); assay type: cell-based; conditions: Clostridium tetani, 48 h, read-out: Antibacterial activity (MIC, mg/l)
E. coli = test: Aerobic antibacterial assay (agar dilution, Mueller-Hinton agar); assay type: cell-based; conditions: Escherichia coli, 24 h, read-out: Antibacterial activity (MIC, mg/l)
Bact. distasonis = test: Anerobic antibacterial assay (agar dilution, Wilkins-Chalgren agar); assay type: cell-based; conditions: Parabacteroides distasonis, 48 h, read-out: Antibacterial activity (MIC, mg/l)

With CCCCCCCCCCc1cccc(C(O)C(N)CO)n1 (stereo not drawn) [erythro-2-Amino-1-(6-Decyl-2-pyridinyl)-1,3-dihydroxypropane] the MIC (E. cloacae) was 12.5 mg/L (≈ 40.5 µM), the MIC (Bact. ovatus) was 6.25 mg/L (≈ 20.3 µM) and the MIC (Staph. aureus; read-out: Antibacterial activity (MIC, mg/l)) was 6.25 mg/L (≈ 20.3 µM). It also gave an MIC (Staph. aureus; read-out: Antibacterial activity (MIC, mg/l), Staph. aureus 285, aerobic, 24 hours at 37° C.) of 12.5 mg/L (≈ 40.5 µM), an MIC (Staph. aureus; read-out: Antibacterial activity (MIC, mg/l), Staph. aureus SG511, aerobic, 24 hours at 37° C.) of 12.5 mg/L (≈ 40.5 µM) and an MIC (Spaeroph. freundii) of 12.5 mg/L (≈ 40.5 µM). The MIC (Clost. perfringens) was 12.5 mg/L (≈ 40.5 µM), the MIC (Bact. thetaiotaom.; 48 h, read-out: Antibacterial activity (MIC, mg/l), Bact. thetaiotaom. 1428) was 12.5 mg/L (≈ 40.5 µM) and the MIC (Bact. thetaiotaom.; 48 h, read-out: Antibacterial activity (MIC, mg/l), Bact. thetaiotaom. 1445) was 12.5 mg/L (≈ 40.5 µM). It also gave an MIC (Bact. thetaiotaom.; Bact. thetaiotaom. 123, read-out: Antibacterial activity (MIC, mg/l)) of 6.26 mg/L (≈ 20.3 µM), an MIC (Bact. fragilis; 48 h, read-out: Antibacterial activity (MIC, mg/l), Bact. fragilis 312) of 12.5 mg/L (≈ 40.5 µM) and an MIC (Bact. fragilis; 48 h, read-out: Antibacterial activity (MIC, mg/l), Bact. fragilis 1313) of 12.5 mg/L (≈ 40.5 µM). For the same compound, the MIC (Bact. fragilis; 48 h, read-out: Antibacterial activity (MIC, mg/l), Bact. fragilis 17390) was 12.5 mg/L (≈ 40.5 µM), the MIC (Bact. fragilis; 48 h, read-out: Antibacterial activity (MIC, mg/l), Bact. fragilis 18125) was 12.5 mg/L (≈ 40.5 µM) and the MIC (Bact. fragilis; 48 h, read-out: Antibacterial activity (MIC, mg/l), Bact. fragilis 19016) was 12.5 mg/L (≈ 40.5 µM). The MIC (Bact. fragilis; Bact. fragilis 960, read-out: Antibacterial activity (MIC, mg/l)) was 6.25 mg/L (≈ 20.3 µM), the MIC (Fusobact. varium) was 12.5 mg/L (≈ 40.5 µM) and the MIC (Peptostr. anaerobius) was 12.5 mg/L (≈ 40.5 µM). For the same compound, the MIC (Strept. pyogenes) was 6.25 mg/L (≈ 20.3 µM), the MIC (Strept. faecium) was 12.5 mg/L (≈ 40.5 µM) and the MIC (Propionibact. acnes) was 12.5 mg/L (≈ 40.5 µM). For the same compound, the MIC (Klebsiella spp.) was 12.5 mg/L (≈ 40.5 µM), the MIC (Bact. vulgatus) was 12.5 mg/L (≈ 40.5 µM) and the MIC (S. typhimurium) was 12.5 mg/L (≈ 40.5 µM). The MIC (Trichophyton Vaginalis) was 15.6 µg/mL (≈ 50.7 µM), the MIC (Trichophyton Rubrum) was 31.2 µg/mL (≈ 101 µM) and the MIC (Microsporum Canis) was 31.2 µg/mL (≈ 101 µM). It also gave an MIC [1] of 31.2 µg/mL (≈ 101 µM), an MIC (Aspergillus Niger) of 31.2 µg/mL (≈ 101 µM) and an MIC (Candida Albicans) of 31.2 µg/mL (≈ 101 µM). The MIC (Clost. tetani) was 12.5 mg/L (≈ 40.5 µM), the MIC (E. coli; E. coli 1507E, 24 hours at 37° C.) was 12.5 mg/L (≈ 40.5 µM) and the MIC (E. coli; E. coli DC0, 24 hours at 37° C.) was 12.5 mg/L (≈ 40.5 µM). The MIC (E. coli; E. coli DC2, 24 hours at 37° C.) was 6.25 mg/L (≈ 20.3 µM), the MIC (E. coli; E. coli O 78, 24 hours at 37° C.) was 12.5 mg/L (≈ 40.5 µM) and the MIC (E. coli; E. coli TEM, 24 hours at 37° C.) was 25 mg/L (≈ 81 µM). The MIC (Bact. distasonis) was 12.5 mg/L (≈ 40.5 µM).
